Test results reported in patent publication US20150141485A1, “PROGNOSIS AND TREATMENT OF LUNG CANCER USING miRNA-135b” (NATIONAL CHENG KUNG UNIVERSITY, priority 2013, published 2015).
Oligonucleotides are written 5' to 3', each unit as a sugar letter and its base; * is a phosphorothioate linkage, no mark a phosphodiester; rarer units and linkages stand in square brackets, end groups in braces. Plain capitals give the bases only. {Chol} = cholesterol; m = 2'-O-methyl

Columns and labels:
[1] = system: CL1-5-F4 cells; assay: Western blot of Hippo pathway proteins; format: cell-based, human; settings: 72 hours
Protocol: (§1) Western bolt analysis of the Hippo pathway proteins in CL1-5-F4 and CL141 cells incubated with Scramble (NC) of Antago-135b for 72 hours. Quantitative RT-PCR was used to assay miR-135b knockdown activity.

[2] = system: H441 human lung adenocarcinoma cells; assay: Subcutaneous xenograft tumor growth; format: in vivo, nude mice
Protocol: Nude mice were subcutaneously injected with 5×10^5 H441 cells. Scramble antagomir (NC) or miR-135b Antagomir (antago-135b) was administered via tail vein injection 2 days after implantation. On day 14 after cancer cell implantation, tumor volume measurements began and were performed every 4 days (n=9). Mean±s.e.m. is shown,*P<0.05 by Student's t-test.
Animals were housed in a specific-pathgen-free environment in the animal facility of the Institute of Biomedical Sciences, Academia Sinica. All experimental procedures were in compliance with the Academia Sinica IACUC and Council of Agriculture Guidebook for the Care and Use of Laboratory Animals. For intravenous injections of the tumor cells, 1×10^6 cells were suspended in 0.1 mL of phosphate-buffered saline (PBS) and injected into lateral tail vein of SCID mice (10 mice per group). At 8 weeks after injection, all mice were killed, and lung surface tumor foci were counted. For the subcutaneous tumor assay, 1×10^6 CL1-0 cells or 2×10^5 H441 cells were subcutaneously injected in 0.1 mL of PBS into male nude mice (n=8 per group) and allowed to grow for 35 days to reach a volume of 50-200 mm^3 Control antagomir (Scramble) or anti-miR-135b antagomir (antago-135) was intravenously injected at a concentration of 10 μM in 0.1 mL of PBS 4 days after the cells were implanted. An example of a miR-135b antagomir is 5′mU(*)mC(*)mAmCmAmUmAmG-mGmAmAmUmGmAmAmAmAmGmCmC(*)mA(*)mU(*)mA(*)(3′-Ch1)3′ (SEQ ID NO:8). The mN indicates 2′-O-methyl base;* indicates phosphorothioate linkage; Ch1 indicates cholesterol.

[3] = system: CL1-5-F4 cells; assay: Soft agar anchorage-independent growth assay; format: cell-based, human; settings: CL1-5-F4 cells transfected 48 hours, vs NC
Protocol: CL1-5-F4 and Hop-62 cells were transfected with the negative control (NC) or the Anatago-135b for 48 hours and subjected to soft agar assays. Error bars indicate mean±s.d.,*P<0.05 by Student's t-test.

[4] = system: CL141 cells; assay: Western blot of Hippo pathway proteins; format: cell-based; settings: 72 hours
Protocol: as §1

[5] = system: CL1-5-F4 cells; assay: Transwell invasion assay; format: cell-based, human; settings: CL1-5-F4 cells transfected 48 hours, vs scramble (NC)
Protocol: (§2) CL1-5-F4 and Hop-62 cells were transfected with scramble (NC) of miR-135b-specific antagomir (Antago-135b) for 48 hours and the subjected to migration assays (FIG. 2d) and invasion assays (FIG. 2e) as described above. *P<0.05;**P<0.005 by Student's t-test.
CL1-5-F4 cells transfected with plasmids expressing either control or miR-135b sponges were analyzed using in vitro invasion assay. The average number of invading cells obtained in the transwell invasion assay is presented (n=3).
(§3) Transwell chambers ([…], BD Falcon, Franklin Lakes, N.J.) were coated with the appropriate amount of Matrigel (BD Biosciences, San Jose, Calif.). Next, 2.5×10^4 cells were suspended in NuSerum-containing media (Gibco BRL, Grand Island N.Y., USA), seeded in the chamber and cultured, Cells that invaded the chamber from top to bottom were fixed with methanol and stained with a solution of propidium iodine (Sigma-Aldrich, St. Louis, Mo.). The propidiumiodine-positive signal was quantified using Analytical Imaging Station software package. Each sample was assayed in triplicate.

[6] = system: CL1-5-F4 cells; assay: Migration assay (culture inserts); format: cell-based, human; settings: CL1-5-F4 cells transfected 48 hours, vs scramble (NC)
Protocol: as §2
(§4) For the migration assay, culture inserts (Ibidi, Munich, Germany) were inserted into 60-mm dishes. Next, the cell suspensions were seeded in each culture insert well at a concentration of 2.5×10^4 (CL1-0) or 3×10^4 (CL1-5-F4 and UACC-257) cells/mL. The culture inserts were removed to leave a gap of approximately 500 μm.

[7] = system: CL1-5-F4 cells; assay: Western blot of endogenous LZTS1; format: cell-based, human; settings: 100 nM, 48 hours
Protocol: (§5) CL1-5-F4 and UACC-257 cells were administrated with 100 nM of negative control (NC) or antago-135b for 48 hours. Total cell lysates were harvested for western blot analysis.

[8] = system: Hop-62 cells; assay: Transwell invasion assay; format: cell-based; settings: Hop-62 cells transfected 48 hours, vs scramble (NC)
Protocol: as §2, §3

[9] = system: UACC-257 cells; assay: Western blot of endogenous LZTS1; format: cell-based; settings: 100 nM, 48 hours
Protocol: as §5

[10] = system: LZTS1 3′-UTR; assay: Luciferase reporter assay, LZTS1 3'-UTR; format: cell-based; settings: CL1-0 cells co-transfected with miR-135b, vs Scramble
Protocol: CL1-0 cells were co-transfected with miR-135b, wild-type LZTS1 3′-UTR along with Scramble or miR-135-specific antagomir (Antago-135b). Luciferase activity was measured and is presented as described in FIG. 5a. Mean±s.d. is shown, *P<0.05; **P<0.005 by Student's t-test.
One day before transfection, CL1-0 cells were seeded at a concentration of 2.5×10^4 per well. Next, the pClneo vector or miR-135b plasmid was co-transfected with the pGL3-target gene-3′UTR. The Renilla lunciferase plasmid (phRL-TK, Promega, Madison, Wis.) was co-transfected as transfection control. Cells were lysed 36 hours after transfection, and luciferase activity was measured using a Dual-Luciferase system (Promega, Madison, Wis.) according to the manufacture's protocol.

[11] = system: Hop-62 cells; assay: Migration assay (culture inserts); format: cell-based; settings: Hop-62 cells transfected 48 hours, vs scramble (NC)
Protocol: as §2, §4

[12] = antagomir systemically injected 4 days after cancer cell implantation

For “5′mU(*)mC(*)mAmCmAmUmAmG-mGmAmAmUmGmAmAmAmAmGmCmC(*)mA(*)mU(*)mA(*)(3′-Ch1)3′ (SEQ ID NO:8) (mU*mC*mAmCmAmUmAmGmGmAmAmUmGmAmAmAmAmGmCmC*mA*mU*mA*{Chol}) [miR-135b antagomir]”, the “LATS2, β-TrCP and NDR2 expressions” value [1] was “induced”, the TAZ protein expression [1] was “reduced” and the “growth of H441 cells” value ([2]; antagomir administered before xenograft implantation) was “inhibited”. The xenograft tumor incidence [2, 12] was “significantly reduced”, the xenograft tumor volume [2, 12] was “significantly reduced” and the “number of cell colonies (soft agar)” value [3] was “decreased”. The “LATS2, β-TrCP and NDR2 expressions” value [4] was “induced”, the TAZ protein expression [4] was “reduced” and the invasive ability [5] was “inhibited these changes”. For the same substance, the migratory ability [6] was “inhibited these changes”, the LZTS1 expression [7] was “significantly increased” and the invasive ability [8] was “inhibited these changes”. For the same substance, the LZTS1 expression [9] was “significantly increased”, the “suppressive effects of miR-135b on LZTS1 3′-UTR-carrying luciferase” value [10] was “significantly reduced” and the migratory ability [11] was “inhibited these changes”.
